Laboratory results from the supplement of paper PMC10307832.

Legend:
Test in all cases: relative viability (nuclei count vs DMSO), 5 days (fraction); higher = more cells survive
[1] = compound: O=S(=O)(c1ccccc1)N(CC(F)(F)F)c1ccc(C(O)(C(F)(F)F)C(F)(F)F)cc1 + Nc1nc2[nH]cc(CCc3ccc(C(=O)N[C@@H](CCC(=O)O)C(=O)O)cc3)c2c(=O)[nH]1 [Pemetrexed] (partner 0.2 µM)
Procedure, shortened: (§1)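 Lung cancer cell lines were seeded in 1536-well plates and dosed by pin tool the next day, with either a single drug or a fixed anchor-drug dose combined with five library-drug doses (not always all listed) spaced in √10 steps. Five days later, one step fixed the cells and stained their nuclei (final 0.05% Triton X-100, 1% formaldehyde, 1 ug/ml Hoechst), and nuclei were counted on 4× images. Relative viability is the nuclei count in treated wells divided by the count in vehicle wells, and each value is the median of duplicate plates.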

RO-3306 + Phenformin = compound: C1=CC2=C(C=CC(=C2)C=C3C(=O)NC(=NCC4=CC=CS4)S3)N=C1 [RO-3306] + N=C(N)NC(=N)NCCc1ccccc1 [Phenformin] (partner 250 µM)
Procedure, shortened: as §1

[2] = compound: O=S(=O)(c1ccccc1)N(CC(F)(F)F)c1ccc(C(O)(C(F)(F)F)C(F)(F)F)cc1 + COc1cccc2cc(-c3nc([C@H]4CC[C@H](C(=O)O)CC4)n4ncnc(N)c34)[nH]c12 [OSI-027] (partner 0.5 µM)
Procedure, shortened: as §1

[3] = compound: O=S(=O)(c1ccccc1)N(CC(F)(F)F)c1ccc(C(O)(C(F)(F)F)C(F)(F)F)cc1 + N=C(N)NC(=N)NCCc1ccccc1 [Phenformin] (partner 250 µM)
Procedure, shortened: as §1

RO-3306 + Luminespib = compound: C1=CC2=C(C=CC(=C2)C=C3C(=O)NC(=NCC4=CC=CS4)S3)N=C1 [RO-3306] + CCNC(=O)c1noc(-c2cc(C(C)C)c(O)cc2O)c1-c1ccc(CN2CCOCC2)cc1 [Luminespib] (partner 0.01 µM)
Procedure, shortened: as §1

| Cell Line | relative viability ([1]; first compound 0.8 µM) | relative viability ([1]; first compound 2.53 µM) | relative viability ([1]; first compound 8 µM) | relative viability (RO-3306 + Phenformin; first compound 0.01 µM) | relative viability (RO-3306 + Phenformin; first compound 0.03162 µM) | relative viability (RO-3306 + Phenformin; first compound 0.1 µM) | relative viability (RO-3306 + Phenformin; first compound 0.3162 µM) | relative viability (RO-3306 + Phenformin; first compound 1 µM) | relative viability ([2]; first compound 0.8 µM) | relative viability ([2]; first compound 2.53 µM) | relative viability ([2]; first compound 8 µM) | relative viability ([3]; first compound 0.8 µM) | relative viability ([3]; first compound 2.53 µM) | relative viability ([3]; first compound 8 µM) | relative viability (RO-3306 + Luminespib; first compound 0.01 µM) | relative viability (RO-3306 + Luminespib; first compound 0.03162 µM) | relative viability (RO-3306 + Luminespib; first compound 0.1 µM) | relative viability (RO-3306 + Luminespib; first compound 0.3162 µM) | relative viability (RO-3306 + Luminespib; first compound 1 µM) |
| --- | --- | --- | --- | --- | --- | --- | --- | --- | --- | --- | --- | --- | --- | --- | --- | --- | --- | --- | --- |
| NCI-H1975 | 0.358 | 0.293 | 0.3 | 0.412 | 0.392 | 0.378 | 0.405 | 0.384 | 0.885 | 0.641 | 0.71 | 0.452 | 0.439 | 0.414 | 0.443 | 0.142 | 0.242 | 0.175 | 0.294 |
| NCI-H2228 | 0.373 | 0.309 | 0.333 | 0.286 | 0.211 | 0.276 | 0.32 | 0.241 | 0.542 | 0.348 | 0.521 | 0.319 | 0.286 | 0.293 | 0.2 | 0.148 | 0.147 | 0.14 | 0.255 |
| NCI-H1563 | 0.737 | 0.749 | 0.75 | 0.643 | 0.639 | 0.641 | 0.631 | 0.666 | 0.792 | 0.734 | 0.854 | 0.676 | 0.637 | 0.675 | 0.516 | 0.519 | 0.6 | 0.533 | 0.507 |
| SK-MES-1 | 1.12 | 1 | 0.824 | 0.73 | 0.605 | 0.711 | 0.621 | 0.625 | 0.639 | 0.647 | 0.443 | 0.779 | 0.745 | 0.65 | 0.708 | 0.973 | 0.705 | 0.605 | 0.968 |
| NCI-H2009 | 1.01 | 0.941 | 0.824 | 0.52 | 0.455 | 0.49 | 0.483 | 0.494 | 0.588 | 0.567 | 0.568 | 0.47 | 0.439 | 0.419 | 1.1 | 0.979 | 1.07 | 0.992 | 0.976 |
| COR-L 105 | 1.34 | 1.06 | 0.988 | 0.499 | 0.386 | 0.417 | 0.517 | 0.429 | 0.763 | 0.581 | 0.715 | 0.455 | 0.422 | 0.492 | 1.07 | 0.885 | 0.606 | 0.65 | 0.547 |
| LCLC-103H | 0.457 | 0.465 | 0.467 | 0.36 | 0.27 | 0.298 | 0.342 | 0.328 | 0.507 | 0.505 | 0.439 | 0.367 | 0.297 | 0.318 | 0.872 | 0.882 | 0.955 | 0.93 | 1.03 |
| NCI-H3122 | 0.209 | 0.19 | 0.201 | 0.419 | 0.612 | 0.397 | 0.391 | 0.665 | 1.18 | 0.807 | 1.14 | 0.345 | 0.334 | 0.338 | 0.113 | 0.108 | 0.0505 | 0.101 | 0.122 |
| CAL-12T | 1.29 | 1.06 | 0.982 | 0.56 | 0.445 | 0.511 | 0.597 | 0.674 | 0.548 | 0.554 | 0.588 | 0.512 | 0.471 | 0.464 | 0.68 | 0.517 | 0.228 | 0.433 | 0.604 |
| NCI-H1355 | 1.12 | 1.03 | 1.03 | 0.429 | – | 0.516 | 0.422 | 0.404 | 0.409 | 0.366 | 0.453 | 0.467 | 0.397 | 0.438 | 0.888 | – | 0.68 | 0.84 | 0.68 |
| NCI-H650 | 0.841 | 0.992 | 0.851 | 0.408 | 0.411 | 0.445 | 0.467 | 0.457 | 0.533 | 0.498 | 0.532 | 0.396 | 0.465 | 0.509 | 0.716 | 0.755 | 0.813 | 0.798 | 0.789 |
| NCI-H1650 | 0.332 | 0.355 | 0.397 | 0.419 | 0.397 | 0.38 | 0.358 | 0.293 | 0.58 | 0.542 | 0.603 | 0.347 | 0.366 | 0.384 | 0.183 | 0.217 | 0.2 | 0.227 | 0.224 |
| NCI-H661 | 0.908 | 0.934 | 0.924 | 0.302 | 0.281 | 0.268 | 0.247 | 0.282 | 0.737 | 0.788 | 0.738 | 0.272 | 0.333 | 0.3 | 0.869 | 1.02 | 0.934 | 0.953 | 0.936 |
| NCI-H2342 | 0.894 | 0.841 | 0.956 | 0.591 | 0.519 | 0.527 | 0.569 | 0.586 | 0.646 | 0.626 | 0.58 | 0.606 | 0.599 | 0.48 | 0.742 | 0.627 | 0.727 | 0.759 | 0.73 |
| NCI-H322M | 0.603 | 0.62 | 0.595 | 0.768 | 0.661 | 0.724 | 0.777 | 0.791 | 0.61 | 0.501 | 0.506 | 0.882 | 0.812 | 0.819 | 0.801 | 0.708 | 0.907 | 0.943 | 0.835 |
| HCC-44 | 0.635 | 0.627 | 0.702 | 0.226 | 0.21 | 0.163 | 0.185 | 0.196 | – | 0.482 | 0.6 | 0.198 | 0.185 | 0.185 | 1.2 | 1.13 | 1.02 | 1.11 | 0.922 |
